Source: patent publication US10245249B2, “Pharmaceutical compositions comprising nitroxyl donors” (Cardioxyl Pharmaceuticals, Inc., priority 2013, dated 2019)

Tests used:
[1] = In vitro stability (half-life) in phosphate buffered saline (PBS) pH 7.4; type: physicochemical; settings: pH 7.4, 5 μM, PBS pH 7.4, 37° C., read-out: T1/2 (minutes) PBS
Procedure: (§1) Certain compounds from Tables 1 and 2 and CXL-1020 were tested for their stability in phosphate buffered saline (PBS) and plasma. The assay system comprised (i) PBS, or plasma from rat, dog or human (at least 3 donors, male, pooled) at pH 7.4, and (ii) for tests conducted in plasma, an anticoagulant (sodium heparin or sodium citrate). Each test compound (5 μM) was incubated in PBS or plasma at 37° C. on a THERMOMIXER® with shaking. Three samples (n=3) were taken at each of seven sampling time points: 0, 10, 30, 60, 90, 180 and 360 minutes. The samples were immediately combined with 3 volumes (i.e., 3 times the volume of PBS or plasma) of acetonitrile containing 1% formic acid and an internal standard to terminate the reaction. AB SCIEX API 3000 LC-MS/MS analysis of the test compounds was performed without a standard curve. Half-lives (T1/2) of the test compounds were determined from graphs of the percent remaining values using the peak area response ratio. For compounds tested multiple times, the value provided in the Table represents an average of the replicate assays.

[2] = HNO production determined via N2O quantification (GC headspace analysis); type: physicochemical; settings: PBS, 37° C.
Source text: Nitrous oxide (N2O) is produced via the dimerization and dehydration of HNO, and is the most common marker for nitroxyl production (Fukuto et al., Chem. Res. Toxicol. 18:790-801 (2005)). […] Using either nitrous oxide gas or Angeli's salt (AS) as a standard, the relative amounts of N2O released from compounds of the disclosure was examined via gas chromatography (GC) headspace analysis.
A procedure for determining the relative amounts of N2O released from compounds of the disclosure is as follows. GC was performed on an Agilent gas chromatograph equipped with a split injector (10:1 splitting), microelectron capture detector, and a HP-MOLSIV 30 m×0.32 mm×25 μm molecular sieve capillary column. Helium was used as the carrier (4 mL/min) gas and nitrogen was used as the make-up (20 mL/min) gas. The injector oven and the detector oven were kept at 200° C. and 325° C., respectively. All nitrous oxide analyses were performed with the column oven held at a constant temperature of 200° C.
All gas injections were made using an automated headspace analyzer. Vial pressurization was 15 psi. The analyzer's sample oven, sampling valve, and transfer line were kept at 40° C., 45° C., and 50° C., respectively. The oven stabilization, vial pressurization, loop fill, loop equilibration, and sample injection times were 1.00 min., 0.20 min., 0.20 min., 0.05 min., and 1.00 min., respectively.
All determinations used a batch of nominal 20 mL headspace vials with volumes pre-measured for sample uniformity (actual vial volume varied by <2.0% relative standard deviation (n=6)). The average vial volume for the batch was determined from six randomly-selected vials by calculating the weight difference between the capped and sealed empty (i.e., air-filled) vial and the capped and sealed deionized water-filled vial using the known density of deionized water, then averaging. Blanks were prepared by sealing and capping two vials then purging each for 20 seconds with a gentle argon stream. Nitroxyl standards were prepared by sealing and capping four vials then purging each for 1 minute with a gentle stream, from a gas cylinder, of a 3000 ppm […].
CXL-1020 (N-hydroxy-2-methanesulfonylbenzene-1-sulfonamide) “standards” were prepared by, in duplicate, accurately weighing 10±0.5 mg of CXL-1020 and adding it to each 4 mL vial. Using an auto pipette, 1 mL of argon-purged anhydrous DMF (Sigma-Aldrich) was added to each 4 mL vial to form a CXL-1020 stock solution for each sample and the vials were capped and shaken and/or sonicated to insure complete dissolution upon visual observation. Using an auto pipette, 20 mL vials were charged with 5 mL of PBS (purged for at least 30 min. with argon prior to use), purged with argon for at least 20 sec., and sealed with a rubber septum. Using a 50 μL syringe, 50 μL of the CXL-1020 stock solution was injected into each 20 mL vial containing the PBS.
Samples were prepared as follows. In duplicate, 18±1 mg of each sample was accurately weighed into each 4 mL vial. Using an auto pipette, 1 mL of argon-purged anhydrous DMF was added to each 4 mL vial to form a sample stock solution for each sample and the vials were capped and shaken and/or sonicated to insure complete sample dissolution upon visual observation. Using an auto pipette, 20 mL vials were charged with 5 mL of PBS (purged for at least 30 min. with argon prior to use), purged with argon for at least 20 sec., and sealed with a rubber septum. The vials were equilibrated for at least 10 min. at 37° C. in a dry block heater. Thereafter, using a 50 μL syringe, 50 μL of a sample stock solution was injected into each 20 mL vial containing the PBS. The vials were then held at 37° C. in the dry block heater for a time period such that the sum of the time spent in the dry block heater plus the time spent in the automated headspace analyzer oven before sample injection equaled the desired incubation time. […]

[3] = In vitro stability (half-life) in rat plasma; type: in vitro ADME; settings: rat plasma pH 7.4 with anticoagulant, 37° C.; for half-life at 5 μM: male, rat, plasma, pH 7.4, 5 μM, read-out: T1/2 (minutes) Rat
Procedure: as §1

Row | Structure (SMILES) | half-life at 5 μM [1] | Relative N2O Yield (90 minutes incubation) [2] | half-life at 5 μM [3] | Relative N2O Yield (360 minutes incubation) [2] | T1/2 (minutes) Rat ([3]; 5 μM)
1 | O=S(=O)(NO)c1cccc2ccoc12 [Compound 4, N-Hydroxy-1-benzofuran-7-sulfonamide] | 149 min | 64% |  |  | 
2 | CC(=O)N1CCc2cc(Br)c(S(=O)(=O)NO)cc21 [Compound 9, 1-Acetyl-5-bromo-N-hydroxy-2,3-dihydro-1H-indole-6-sulfonamide] | 2 min | 53% | > 360 min | 71% | 
3 | O=S(=O)(NO)c1cc(CO)ccc1Cl [Compound 10, 2-Chloro-N-hydroxy-5-(hydroxymethyl)benzene-1-sulfonamide] | 5 min | 91% |  |  | 
4 | CC(=O)N1CCc2cc(Cl)c(S(=O)(=O)NO)cc21 [Compound 11, 1-Acetyl-5-chloro-N-hydroxy-2,3-dihydro-1H-indole-6-sulfonamide] | 5 min | 55% | < 5 min | 81% | 
5 | O=S(=O)(NO)c1cc(Cl)c(Cl)s1 [Compound 12, 4,5-Dichloro-N-hydroxythiophene-2-sulfonamide] | 20 min | 29% |  |  | 
6 | COc1ccc2cc(S(=O)(=O)NO)oc2c1 [Compound 13, N-Hydroxy-6-methoxy-1-benzofuran-2-sulfonamide] | 42 min | 86% |  |  | 
7 | Cc1ccc(S(=O)(=O)NO)c(F)c1 [Compound 14, 2-Fluoro-N-hydroxy-4-methylbenzene-1-sulfonamide] | 75 min | 48% | 13 min | 70% | 
8 | O=S(=O)(NO)c1ccc2nsnc2c1 [Compound 15, N-Hydroxy-2,1,3-benzothiadiazole-5-sulfonamide] | 63 min | 59% |  | 71% | 
9 | CS(=O)(=O)c1csc(S(=O)(=O)NO)c1 [Compound 16, N-Hydroxy-4-methanesulfonylthiophene-2-sulfonamide] | 20 min | 86% |  |  | 
10 | COc1ccc(Br)cc1S(=O)(=O)NO [Compound 17, 5-Bromo-N-hydroxy-2-methoxybenzene-1-sulfonamide] | 59 min | 53% | > 360 min | 77% | 
11 | Cc1cc(S(=O)(=O)NO)c(C)cc1Cl [Compound 18, 4-Chloro-N-hydroxy-2,5-dimethylbenzene-1-sulfonamide] | 56 min | 56% | > 360 min | 73% | 
12 | CCN(CC)C(=O)c1ccc(S(=O)(=O)NO)s1 [Compound 19, N,N-Diethyl-5-(hydroxysulfamoyl)thiophene-2-carboxamide] | 44 min | 77% |  |  | 
13 | Cc1ccc(F)cc1S(=O)(=O)NO [Compound 20, 5-Fluoro-N-hydroxy-2-methylbenzene-1-sulfonamide] |  | 90% |  |  | 7 min
14 | O=C(c1ccc(S(=O)(=O)NO)s1)N1CCOCC1 [Compound 21, N-Hydroxy-5-(morpholine-4-carbonyl)thiophene-2-sulfonamide] | 39 min | 73.5% | 36 min |  | 
15 | CC(C)NC(=O)c1ccc(S(=O)(=O)NO)s1 [Compound 22, 5-(Hydroxysulfamoyl)-N-(propan-2-yl)thiophene-2-carboxamide] | 33 min | 85% | 23 min |  | 
16 | CS(=O)(=O)c1ccc(S(=O)(=O)NO)s1 [Compound 23, N-Hydroxy-5-methanesulfonylthiophene-2-sulfonamide] | 66 min |  |  |  | 
17 | O=S(=O)(NO)c1cccc2nsnc12 [Compound 24, N-Hydroxy-2,1,3-benzothiadiazole-4-sulfonamide] | 37 min | 60% | 14 min | 69% | 
18 | COc1ccccc1S(=O)(=O)NO [Compound 25, N-Hydroxy-2-methoxybenzene-1-sulfonamide] | 86 min | 7% |  | 28% | 
19 | O=C(c1cc(S(=O)(=O)NO)cs1)N1CCOCC1 [Compound 28, N-Hydroxy-5-(morpholine-4-carbonyl)thiophene-3-sulfonamide] | 136 min | 74% |  |  | 
20 | Cc1nn(C)c(Cl)c1S(=O)(=O)NO [Compound 30, 5-Chloro-N-hydroxy-1,3-dimethyl-1H-pyrazole-4-sulfonamide] | 385 min | 27% |  |  | 
21 | Cn1cc(S(=O)(=O)NO)cn1 [Compound 31, N-Hydroxy-1-methyl-1H-pyrazole-4-sulfonamide] | 745 min |  |  |  | 
22 | O=S(=O)(NO)c1ccccn1 [Compound 32, N-Hydroxypyridine-2-sulfonamide] | 61 min | 71% | 32 min |  | 
23 | O=C(c1csc(S(=O)(=O)NO)c1)N1CCOCC1 [Compound 35, N-Hydroxy-4-(morpholine-4-carbonyl)thiophene-2-sulfonamide] | 58 min | 100% | 19 min |  | 
24 | Cc1cc(F)ccc1S(=O)(=O)NO [Compound 39, 4-Fluoro-N-hydroxy-2-methylbenzene-1-sulfonamide] | 30 min | 60% | 29 min | 75% | 
25 | O=[N+]([O-])c1cc(S(=O)(=O)NO)sc1Cl [Compound 47, 5-Chloro-N-hydroxy-4-nitrothiophene-2-sulfonamide] | 11 min | 58% | < 5 min | 70% | 
26 | Cc1ccc(C)c(S(=O)(=O)NO)c1 [Compound 49, N-Hydroxy-2,5-dimethylbenzene-1-sulfonamide] | 87 min | 42% | 13 min | 68% | 
27 | O=S(=O)(NO)c1cc(S(=O)(=O)c2ccccc2)cs1 [Compound 51, 4-(Benzenesulfonyl)-N-hydroxythiophene-2-sulfonamide] | 15 min | 96% | 7 min |  | 
28 | O=S(=O)(NO)c1ccc(Cl)c(Cl)c1 [Compound 95, 3,4-Dichloro-N-hydroxybenzene-1-sulfonamide] | > 360 min |  | > 360 min |  | 
